Data: the NIST ThermoML archive (doi:10.1021/je050443o)

Experiment: wn = mass fraction of the nth substance listed
Details: 101.33 kPa, Liquid

O=S(=O)(O)O [sulfuric acid] + O
Details | mass density, w1 = 0.1 [kg/m3] | mass density, w1 = 0.2 [kg/m3] | mass density, w1 = 0.3 [kg/m3] | viscosity, w1 = 0.1 [mPa·s] | viscosity, w1 = 0.2 [mPa·s] | viscosity, w1 = 0.3 [mPa·s]
293.15 K | 1066.2 | 1139.5 | 1218.3 | 1.231 | 1.55 | 2.009
303.15 K | 1061.9 | 1133.3 | 1211.7 | 0.9804 | 1.229 | 1.601
313.15 K | 1056.8 | 1126.9 | 1204.3 | 0.7896 | 0.9887 | 1.306
323.15 K | 1051.8 | 1121.1 | 1198 | 0.661 | 0.8311 | 1.1
333.15 K | 1046.3 | 1115.3 | 1190.7 | 0.5598 | 0.7105 | 0.9426
343.15 K | 1039.6 | 1108.8 | 1184.2 | 0.4902 | 0.6409 | 0.8467
